In this assay the target is T1, RORγ (Homo sapiens, UniProt P51449).
T1 construct: Gal4 (galactose-responsive transcription factor); expressed in transfected cells; host or cells: HEK293
T1 sequence (P51449 269-508 limits assumed): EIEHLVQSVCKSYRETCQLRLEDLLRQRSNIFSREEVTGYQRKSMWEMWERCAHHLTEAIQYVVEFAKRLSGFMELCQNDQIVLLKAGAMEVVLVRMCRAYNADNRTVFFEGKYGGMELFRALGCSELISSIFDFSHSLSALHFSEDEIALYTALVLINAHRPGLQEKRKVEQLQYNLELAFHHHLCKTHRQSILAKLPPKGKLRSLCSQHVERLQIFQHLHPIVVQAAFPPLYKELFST
Description: RORγ Reporter Assay (Gal4). It is filed as cell-based. The method, then: RORγ Reporter Assay (Gal4)
The HEK293 cell line is co-transfected transiently with two plasmids, one with the RORγ ligand-binding domain fused to galactose-responsive transcription factor (Gal4), and the other with the luciferase reporter gene and Gal binding sites (UAS). This construction allows to determine the RORγ activity in a cellular system through the measurement of luminescence.
A suspension of RORγ reporter cells was dispensed into plates and cultured 2 h at 37° C. and 5% CO2. Media formulation consisted in DMEM/F-12 medium (Gibco) supplemented with 10% heat inactivated FBS (Sigma-Aldrich), non-essential aminoacids (Sigma-Aldrich), 2 mM Glutamax (Gibco) and 100 U/mF penicillin (Sigma-Aldrich). Dose-response curves with compounds were prepared in 100% DMSO and further diluted […] in culture medium. Compound solutions were added to the plate containing cells (final DMSO concentration of 0.1%) and incubated for 24 h at 37° C. and 5% CO2. Luciferase detection reagent was added to each well, and relative light units […] were quantified from each assay well using a plate reading luminometer.
Values of average RFU±S.D. were computed for all treatment sets, followed by the calculations of percent-reduction of RORγ activity in response to respective test compound. The following formula was used: activity=100*[1−[x test compound/average vehicle]where the theoretical minimum reduction (0% reduction).
For orientation: In a reporter assay the amount or activity of a reporter protein is the signal.

Setting [1] is: HEK293 co-transfected with RORγ LBD-Gal4 and luciferase reporter, 24 h incubation, absolute IC50, read-out: IC50.

As a reminder, the IC50 is the concentration that gives 50% inhibition.

Where two headings read alike, the source gives them in different places.

Regarding `NC(=O)CN1CCC(CNc2ncnc(N3CC(F)(F)C[C@@H]3c3ccc(C(F)(F)F)cn3)c2F)C(F)(F)C1` (single isomer, unassigned) [Example H6-19-2, 2-((R*)-4-(((6-((R)-4,4-difluoro-2-(5-(trifluoromethyl)pyridin-2-yl)pyrrolidin-1-yl)-5-fluoropyrimidin-4-yl)amino)methyl)-3,3-difluoropiperidin-1-yl)acetamide], under setting [1], the IC50 was found to be 46 nM.

For the compound `NC(=O)CN1CC[C@H](CNc2ncnc(N3CC(F)(F)C[C@@H]3c3ccc(C(F)(F)F)cc3)c2F)[C@@H](F)C1` (single isomer, unassigned) [Example H6-16-1, 2-((3R*,4R*)-4-(((6-((R)-4,4-difluoro-2-(4-(trifluoromethyl)phenyl)pyrrolidin-1-yl)-5-fluoropyrimidin-4-yl)amino)methyl)-3-fluoropiperidin-1-yl)acetamide], under setting [1], the half-maximal inhibitory concentration (IC50) came out at 14 nM.

`NC(=O)Cc1ccc(CNc2ncnc(N3CCOC[C@@H]3c3ccc(C(F)(F)F)cc3)c2F)cc1` [Example 204, reference compound]: the IC50 (comparison compounds from WO2016020295, Tables 5 and 6, read-out: Gal4 assay IC50) was less than 500 nM.

For the compound `C[C@@H]1COC[C@H](c2cccc(C(F)(F)F)c2)N1c1ncnc(NC[C@@H]2CCN(CC(N)=O)C[C@H]2O)c1F` (single isomer, unassigned) [Example H6-21-4], the IC50 under setting [1] is 120 nM.

In the case of `NC(=O)CN1CCC(CNc2ncnc(N3CCOC[C@@H]3c3ccc(C(F)(F)F)cn3)c2F)C(F)(F)C1` (single isomer, unassigned) [Example H6-11-1, 2-((R*)-3,3-difluoro-4-(((5-fluoro-6-((S)-3-(5-(trifluoromethyl)pyridin-2-yl)morpholino)pyrimidin-4-yl)amino)methyl)piperidin-1-yl)acetamide], the 50% inhibitory concentration (IC50) under setting [1] is 360 nM.

For the compound `NC(=O)CN1CCC(CNc2ncnc(N3CCCC3c3ccc(C(F)(F)F)cc3)c2F)CC1` (centres unmarked) [Example H6-25, 2-(4-(((5-fluoro-6-(2-(4-(trifluoromethyl)phenyl)pyrrolidin-1-yl)pyrimidin-4-yl)amino)methyl)piperidin-1-yl)acetamide], the IC50 under setting [1] was found to be 88 nM.

For `NC(=O)CN1CCC(CNc2ncnc(N3CCC[C@@H]3c3ccc(C(F)(F)F)cc3)c2F)CC1` [Example H6-25-1, (R)-2-(4-(((5-fluoro-6-(2-(4-(trifluoromethyl)phenyl)pyrrolidin-1-yl)pyrimidin-4-yl)amino)methyl)piperidin-1-yl)acetamide], the IC50 under setting [1] worked out at 66 nM.

Consider `NC(=O)CN1CC[C@H](CNc2ncnc(N3CC(F)(F)C[C@@H]3c3ccc(C(F)(F)F)cc3)c2F)[C@@H](F)C1` (single isomer, unassigned) [Example H6-16-2, 2-((3R*,4R*)-4-(((6-((R)-4,4-difluoro-2-(4-(trifluoromethyl)phenyl)pyrrolidin-1-yl)-5-fluoropyrimidin-4-yl)amino)methyl)-3-fluoropiperidin-1-yl)acetamide], for which the IC50 under setting [1] is 10 nM.

Consider `NC(=O)CN1CC[C@H](CNc2ncnc(N3CC(F)(F)C[C@@H]3c3ccc(C(F)(F)F)cn3)c2F)[C@@H](F)C1` (single isomer, unassigned) [Example H6-18-1, 2-((3R*,4R*)-4-(((6-((R)-4,4-difluoro-2-(5-(trifluoromethyl)pyridin-2-yl)pyrrolidin-1-yl)-5-fluoropyrimidin-4-yl)amino)methyl)-3-fluoropiperidin-1-yl)acetamide], for which the 50% inhibitory concentration (IC50) under setting [1] is 140 nM.

Regarding `NC(=O)CN1CCC(CNc2ncnc(N3CCOC[C@@H]3c3ccc(C(F)(F)F)cn3)c2F)CC1` [Example H6-2, (S)-2-(4-(((5-fluoro-6-(3-(5-(trifluoromethyl)pyridin-2-yl)morpholino)pyrimidin-4-yl)amino)methyl)piperidin-1-yl)acetamide], the IC50 under setting [1] was determined as 330 nM.

As for `NC(=O)CN1CC[C@@H](CNc2ncnc(N3CCOC[C@@H]3c3ccc(C(F)(F)F)cc3)c2F)[C@H](O)C1` (single isomer, unassigned) [Example H6-7-2, 2-((3R*,4R*)-4-(((5-fluoro-6-((S)-3-(4-(trifluoromethyl)phenyl)morpholino)pyrimidin-4-yl)amino)methyl)-3-hydroxypiperidin-1-yl)acetamide], the IC50 under setting [1] was 35 nM.

The values above are taken from patent US11447479B2, “Compounds active towards nuclear receptors” (NUEVOLUTION A/S, priority 2019, dated 2022).
